We go through 26 compounds from US10363231B2, “Compounds and methods of treating ocular disorders” (CASE WESTERN RESERVE UNIVERSITY, priority 2014, dated 2019).

The target in one data set is T1, LRAT (Bos taurus, UniProt Q9BGL2).
T1 construct: incubated with RPF microsomes that served as a source of LRAT enzymatic activity; from tissue; host or cells: bovine retinal pigment epithelium (RPE) microsomes
T1 sequence (Q9BGL2 1-230): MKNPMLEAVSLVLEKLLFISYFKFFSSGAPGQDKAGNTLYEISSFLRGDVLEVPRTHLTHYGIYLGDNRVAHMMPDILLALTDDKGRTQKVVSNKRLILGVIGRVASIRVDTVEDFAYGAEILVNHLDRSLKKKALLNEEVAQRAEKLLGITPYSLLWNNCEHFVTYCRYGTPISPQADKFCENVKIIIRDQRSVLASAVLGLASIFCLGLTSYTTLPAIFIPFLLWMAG
Kind of data set: LRAT activity assay with bovine RPE microsomes (esterification of the corresponding primary alcohols). It counts as biochemical. Conditions: percentage of the corresponding primary alcohol esterified by LRAT in 1 h at 37° C; 10 μM; RPE microsomes. The protocol:
(§1) Bovine RPE microsomes were isolated from RPE homogenates by differential centrifugation as previously described. The resulting microsomal precipitate was resuspended in 10 mM Bis-Tris propane/HCl buffer, pH 7.4, to achieve a total protein concentration of […]. Then the mixture was placed in a quartz cuvette and irradiated for 6 min at 4° C. with a ChromatoUVE transilluminator (model TM-15; UVP) to eliminate residual retinoids. After irradiation, DTT was added to the RPE microsomal mixture to achieve a final concentration of 5 mM.
Two μl of a synthesized primary alcohol or amine dissolved in DMF (final concentration 10 μM) and 2 μl of 1,2-diheptanoyl-sn-glicerol-3-phosphocholine (water, final concentration 1 mM) were added to 200 μl of 10 mM Bis-Tris propane/HCl buffer, pH 7.4, containing 150 μg of RPE microsomes and 1% (v/w) BSA. The resulting mixture was incubated at 37° C. for 1 h. The reaction was quenched by adding 300 μl of methanol. Most reaction products were extracted with 300 μl of hexanes, except for products from the QEA-C-006 and QEA-G groups which were extracted by adding 300 μl of ethyl acetate and 300 μl of water.
Reaction products were separated and quantified by normal phase HPLC (Agilent Sil 5 μm, 4.6 mm×250 mm) in stepwise gradient of ethyl acetate in hexanes (0-15 min, 10%; 20-30 min, 30%) at a flow rate of 1.4 ml·min^−1.
The properties of retinoid derivatives were examined by two standard enzymatic tests, the […] and retinoid isomerization assays. To identify substrates of LRAT, aldehydes were reduced by sodium borohydrate to their corresponding primary alcohols that then were directly used in the esterification assay (FIG. 2B).
The alcohols were incubated with RPF microsomes that served as a source of LRAT enzymatic activity. Products of the enzymatic reaction as well as the remaining substrates were extracted with organic solvents and analyzed by HPLC. The ratio between a substrate and its esterified form was used to measure enzymatic activity efficiency, based on equivalent UV absorption of the substrate and product at their specific UV maxim wavelengths. Compounds classified as ‘good’ LRAT substrates converted at least 50% of their available alcohol substrates into corresponding esters under these experimental conditions, whereas marginal LRAT substrates were converted at less than 5%. Alcohols with a 5-50% conversion ratio were classified as weak substrates. Among 35 tested compounds, 23 were categorized as good and 9 as weak substrates; 3 compounds were not esterified by LRAT (Table 1 and FIG. 2C). […] Moreover, breaking double bond conjugation along the polyene chain or deletion of a C9 and/or a C13 methyl group also was allowed.

The target of the next data set is T2, RPE65 (Bos taurus, UniProt Q28175).
T2 construct: from tissue; host or cells: bovine retinal pigment epithelium (RPE) microsomes
Nature of the data set: Retinoid isomerase activity assay (11-cis-retinol production in RPE microsomes). The following applies: for IC50: primary amine, decline in 11-cis-retinol production in RPE microsomes, read-out: Inhibition of RPE65. The format is biochemical, Bovine. The protocol: as §1
[…] The resulting mixture was pre incubated at room temperature for 5 min. Then 1 μl of all-trans-retinol (in DMF, final concentration 20 μM) was added. The resulting mixture was incubated at 37° C. for 15 min to 2 h. The reaction was quenched by adding 300 μl of methanol, and products were extracted with 300 μl of hexanes. Production of 11-cis-retinol was quantified by normal phase HPLC with 10% (v/v) ethyl acetate in hexanes as the eluent at a flow rate of 1.4 ml·min^−1. Retinoids were detected by monitoring their absorbance at 325 nm and quantified based on a standard curve representing the relationship between the amount of 11-cis-retinol and the area under the corresponding chromatographic peak.
Primary amines of compounds derived from the aldehydes were subsequently tested for their ability to inhibit the RPE65-dependent retinoid isomerization reaction in dose- and time dependent reactions as exemplified by QEB-B-001 (FIG. 3B). Amines were incubated with RPE microsomes in the presence of all-trans-retinol and the 11-cis-retinoid binding protein, CRALBP.
Progress of the enzymatic reaction was monitored by HPLC separation of retinoids and quantification of 11-cis-retinol with a decrease of 11-cis-retinol production reflecting inhibition of RPE65 by a tested amine. […] This moderate inhibition could be enhanced by shortening the polyene chain length (TEA amines) or diminished by introducing an extra positive charge into the tested compounds (QEA-G amines).

A further data set concerns Abca4^−/−Rdh8^−/− mice. Kind of data set: Toxicity in treated Abca4−/−Rdh8−/− mice (Table 2). Conditions: 4-week-old Abca4−/−Rdh8−/− mice, oral gavage. It counts as in vivo. The protocol:
(§2) Abca4^−/−Rdh8^−/− double knockout mice were generated as previously described. Mice were housed in the animal facility at the School of Medicine, Case Western Reserve University, where they were maintained under either complete darkness or in a 12-h light (˜300 lux) and 12-h dark cycle. All tested primary amines were suspended in 100 μl of soybean oil with less than 10% (v/v) DMSO and were administered by oral gavage with a 22-gauge feeding needle. Experimental manipulations in the dark were done under dim red light transmitted through a Kodak No. 1 safelight filter (transmittance >560 nm). All animal procedures and experiments were approved by the Case Western Reserve University Animal Care Committees and conformed to recommendations of the American Veterinary Medical Association Panel on Euthanasia and the Association of Research for Vision and Ophthalmology.
(§3) For practical reasons, only eight of these leading compounds (QEA-B-001-NH2, B-002-NH2, C-001-NH2, C-003-NH2, C006-NH2, E-002-NH2, TEA-B-002-NH2, and C00-2-NH2) along with retinylamine as a control were selected for further testing in Abca4^−/−Rdh8^−/− mice, an animal model for light-induced retinal degeneration (Table 2). Additionally, two novel amines with moderate inhibition of RPE65 (QEA-A-006-NH2 and QEA-B-003-NI 12) and one with strong inhibition (QEA-A-005-NH2) were added to the first test group for comparison. Mice were gavaged with 1 mg of a test compound and then kept in the dark for 24 h prior to being exposed to bright light (˜10,000 lux) for 1 h. Retinal damage was assessed with OCT that measured the thickness of the outer nuclear layer and by quantification of tissue 11-cis retinal levels. An example is shown for imaging results in FIG. 4A and for 11-cis-retinal quantification in FIG. 4B. Additionally, extracts of livers obtained from treated mice were analyzed by HPLC to estimate the amounts of corresponding amides (FIG. 4C).

Data set [1] can be described thus: Analysis of retinoid composition in mouse tissues: amide forms in liver by HPLC. The format is in vivo, mice. The following applies: oral gavage; for Protection by amide in liver: 4-week-old Abca4−/−Rdh8−/− mice, dark 24 h, liver extracts by HPLC; for amidation in vivo (accumulation of amide forms in mouse liver): liver HPLC. The protocol: as §2
Two mg of primary amines were administered by oral gavage to 4-week-old Abca4^−/−Rdh8^−/− mice, which then were kept in the dark for 24 h. Then mice were euthanized, and their livers were homogenized in 1 ml of 10 mM sodium phosphate buffer, pH 7.4, containing 50% methanol (v/v). The resulting mixture was extracted with 4 ml of hexanes. Extracts were dried in vacuo, and reconstituted in 300 μl of hexanes. 100 μl of this solution was analyzed by HPLC as described above for the LRAT activity assay.
as §3

T2 sequence (Q28175 whole entry): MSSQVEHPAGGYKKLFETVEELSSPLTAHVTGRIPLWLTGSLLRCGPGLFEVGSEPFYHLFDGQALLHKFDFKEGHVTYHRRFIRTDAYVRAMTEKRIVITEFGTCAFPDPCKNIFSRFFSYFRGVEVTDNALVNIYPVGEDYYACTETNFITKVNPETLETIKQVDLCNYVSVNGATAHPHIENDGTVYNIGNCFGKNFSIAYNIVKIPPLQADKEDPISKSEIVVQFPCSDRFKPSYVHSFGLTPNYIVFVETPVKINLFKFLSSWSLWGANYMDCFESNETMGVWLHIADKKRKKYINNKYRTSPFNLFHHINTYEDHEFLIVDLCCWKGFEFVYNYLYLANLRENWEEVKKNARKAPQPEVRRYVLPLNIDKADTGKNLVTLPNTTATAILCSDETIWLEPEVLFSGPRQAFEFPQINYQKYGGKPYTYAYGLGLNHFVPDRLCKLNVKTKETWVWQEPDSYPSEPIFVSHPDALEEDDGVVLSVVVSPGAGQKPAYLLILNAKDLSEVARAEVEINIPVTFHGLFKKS

Turning to `COc1ccc(C(=C\C=C\C(C)=C\CN)/C=C/c2ccc([N+](=O)[O-])cc2)cc1` [QEA-C-005-NH2], the “LRAT Substrate” value at LRAT was 100%. Moreover, the IC50 at RPE65 is over 200 µM.
On to `CC1=C(/C=C/C(C)=C/C=C/CN)C(C)(C)CCC1` [TEA-A-001-NH2], for which, at LRAT, the “LRAT Substrate” value was 100%. Moreover, the IC50 at RPE65 was under 10 µM.
On to `CC1=C(/C=C/C(=C/C=C/C(C)=C/CN)C(C)(C)C)C(C)(C)CCC1` [QEA-B-003-NH2], for which the “LRAT Substrate” value at LRAT is listed as 100%. In addition, in the data set on Abca4^−/−Rdh8^−/− mice, the Toxicity result is listed as “None”. Moreover, in data set [1], the “Protection by amide in liver” value is “Weak” and the “amidation in vivo (accumulation of amide forms in mouse liver)” value is “not efficiently amidated”. Moreover, the IC50 at RPE65 is 10 to 100 µM.
Take `CC1=C(/C=C/C(=C/C=C/CN)C(C)(C)C)C(C)(C)CCC1` [TEA-B-001-NH2]: the “LRAT Substrate” value at LRAT worked out at 100%. Further, the IC50 at RPE65 is over 200 µM.
On to `CC(C)(C)C(=C\C=C\CN)/C=C/c1ccc2c(c1)CCCC2` [TEA-C-001-NH2], for which the “LRAT Substrate” value on LRAT is 0%.
With `CC1=C(/C=C/C(C)=C/C=C/C(C)=C/CN)C(C)(C)CCC1O` (centres unmarked) [QEA-A-002-NH2], at LRAT, the “LRAT Substrate” value is 100%. Further, the IC50 at RPE65 was under 10 µM.
With `CC1=C(/C=C/C(C)=C/C=C/C(C)=C/CN)C(C)(C)CC(O)C1` (centres unmarked) [QEA-A-003-NH2], the “LRAT Substrate” value at LRAT worked out at 100%. Besides, the IC50 on RPE65 was under 10 µM.
As to `CC1=C(/C=C/C(=C/C=C/C(C)=C/CN)C(C)(C)C)CCCC1` [QEA-B-002-NH2], the “LRAT Substrate” value at LRAT is 30%. Also, the Toxicity result in the data set with Abca4^−/−Rdh8^−/− mice is listed as “None”. In data set [1], the “Protection by amide in liver” value is reported as “None” and the “amidation in vivo (accumulation of amide forms in mouse liver)” value is listed as “not efficiently amidated”. Besides, at RPE65, the “inhibition of RPE65” value was “did not inhibit” and the IC50 is over 200 µM.
Consider `NC/C=C/C=C(/C=C/C1=CCCCC1)c1ccccc1` [TEA-B-004-NH2], for which the “LRAT Substrate” value on LRAT was found to be 30%. Moreover, the IC50 at RPE65 is over 200 µM.
`CC1=C(/C=C/C(C)=C/C=C/CN)C(C)(C)CC(O)C1` (centres unmarked) [TEA-A-003-NH2]: the “LRAT Substrate” value on LRAT was 90%. Moreover, the IC50 at RPE65 was under 10 µM.
Taken in the same sequence, the figures for `CC(/C=C/C=C1/C=C(C2=COCCC2)CCC1)=C\CN` [QEA-D-002-NH2] were 100% and over 200 µM.
On to `CC1=C(/C=C/C(C)=C/C=C/CN)C(C)(C)CC=C1` [TEA-A-002-NH2], for which the “LRAT Substrate” value at LRAT is listed as 100%. In addition, on RPE65, the IC50 is under 10 µM.
The corresponding values for `CC(/C=C/C=C(/C=C/C1=CCCCC1)c1ccccc1)=C\CN` [QEA-E-001-NH2] are 100% and over 200 µM.
Take `CC(/C=C/C=C(/C=C/c1ccc(Cl)cc1)c1ccccc1)=C\CN` [QEA-C-004-NH2]: the “LRAT Substrate” value at LRAT is on record as 100%. In addition, the IC50 on RPE65 was over 200 µM.
Taken in the same sequence, the figures for `CC(/C=C/C=C1/C=C(c2cccnc2)CCC1)=C\CN` [QEA-G-001-NH2] were 100% and 10 to 100 µM.
Taken in the same sequence, the figures for `CC1=C(/C=C/C(C)=C/C=C/C=C/CN)C(C)(C)CCC1` [QEA-A-004-NH2] were 100% and under 10 µM.
For the compound `CC1=C(/C=C/C(=C/C=C/CN)C(C)(C)C)CCCC1` [TEA-B-003-NH2], the “LRAT Substrate” value on LRAT is 20%. Besides, the IC50 on RPE65 is over 200 µM.
The corresponding values for `CC(/C=C/C=C1/C=C(C2=CCCCC2)CCC1)=C\CN` [QEA-D-001-NH2] are 100% and over 200 µM.
Consider `COc1ccc(C(=C\C=C\C(C)=C\CN)/C=C/c2cccnc2)cc1` [QEA-G-002-NH2], for which the “LRAT Substrate” value on LRAT is on record as 100%. Also, the IC50 on RPE65 lay in the range of 10 to 100 µM.
With `CC1=C(/C=C/C(=C/C=C/C(=C/CN)C(C)(C)C)C(C)(C)C)C(C)(C)CCC1` [QEA-B-004-NH2], the “LRAT Substrate” value at LRAT was 0%.
As to `CC1=C(/C=C/C(C)=C/C=C/C(C)=C/C=C/CN)C(C)(C)CCC1` [PEA-A-001-NH2], the “LRAT Substrate” value on LRAT was found to be 100%. Further, the IC50 on RPE65 is under 10 µM.
`CC(C)(C)C(=C\CN)/C=C/C=C(/C=C/C1=CCCCC1)C(C)(C)C` [QEA-B-005-NH2]: the “LRAT Substrate” value on LRAT was 0%.
Regarding `CC1=C(/C=C/C(C)=C/C=C/C(C)=C/C=C/CN)C(C)(C)CCC1O` (centres unmarked) [PEA-A-002-NH2], the “LRAT Substrate” value on LRAT worked out at 90%. Moreover, at RPE65, the IC50 was under 10 µM.
Taken in the same sequence, the figures for `CC(/C=C/C=C(/C=C/c1ccc2c(c1)CCCC2)C(C)(C)C)=C\CN` [QEA-C-002-NH2] were 15% and over 200 µM.
`CC1=C(/C=C/C(C)=C/C=C/CN)C(C)(C)CCC1O` (centres unmarked) [TEA-A-004-NH2]: on LRAT, the “LRAT Substrate” value was determined as 90%. The IC50 on RPE65 was under 10 µM.
Taken in the same sequence, the figures for `CC1=C(/C=C/C(C)=C/C=C/C(C)=C/C=C/CN)C(C)(C)CC(O)C1` (centres unmarked) [PEA-A-003-NH2] were 90% and under 10 µM.
